- melting point: 179 °C
Structure (SMILES): CCS(=O)(=O)N(C(C)=O)c1cc(-n2nc(C(F)(F)F)n(C)c2=O)c(F)cc1C#N
